{"source": "patent US8193343B2", "about": "“Manufacture and products thereof of photosensitizing nanomaterials and their use in photodynamic treatment” (Westfalische Wilhelms-Universitat Munster, priority 2009, dated 2012)", "assay": "phosphorescence of singlet oxygen (near IR emission spectrum)", "conditions": "in CD2Cl2 at room temperature, λexc=670 nm", "method": "The spectrum was recorded from a suspension of the photosensitizing nanomaterial in CD2Cl2 at room temperature, λexc=670 nm.\nThe singlet oxygen ^1O2 is produced by reaction of triplet oxygen (^3O2) with the monomeric form of the silicon (IV) phthalocyanine chloride complex, which is present on the surface of the zeolite L crystals, according to an example of the present disclosure. The generation of the singlet oxygen ^1O2 was investigated by measuring the near IR emission spectrum of the photosensitizing nanomaterials 40 in a suspension with deuteriated dichloromethane as the solvent (CD2Cl2). […] No characteristic phosphorescence can be detected.\nFluorescence emission and excitation spectra of the photosensitizing nanomaterial 40 suspended in CH2Cl2 were recorded by using a HORIBA Jobin-Yvon IBH FL-322 Fluorolog 3 spectrometer. The phosphorescence spectrum of ^1O2 in CD2Cl2 was recorded by using a HORIBA Jobin-Yvon IBH FL-322 Fluorolog 3 spectrometer equipped with an air-cooled Hamamatsu H9170-75 (InP/InGaAs) PMT detector."}
{"smiles": "Cl[Si]1(Cl)n2c3c4ccccc4c2N=C2N=C(N=c4c5ccccc5c(n41)=NC1=NC(=N3)c3ccccc31)c1ccccc12", "note": "[silicon (IV) phthalocyanine chloride, Si(IV) phthalocyanine dichloride]", "values": [{"measurement": "generation of singlet oxygen (1O2), characteristic phosphorescence", "result": "does not show any generation of the singlet oxygen"}]}
